Here are results for 30 molecules from patent publication US10239861B2, “Therapeutic compounds and uses thereof” (GENENTECH, INC., priority 2015, dated 2019).

The structures appear in SMILES notation.

The target in the experiment is PCAF bromodomain (His/Flag epitope tagged PCAF719-832) (Homo sapiens (Human), UniProt Q92831). Briefly: PCAF AlphaLisa binding assay. The conditions noted are these: AlphaLisa; PCAF bromodomain 225 nM, biotinylated small molecule ligand 6 nM; read-out: PCAF IC50. As for the experimental part: IC50 Measurements for Inhibitors Using PCAF AlphaLisa Binding Assay
Chain of PCAF bromodomain (His/Flag epitope tagged PCAF719-832) (Q92831 719-832): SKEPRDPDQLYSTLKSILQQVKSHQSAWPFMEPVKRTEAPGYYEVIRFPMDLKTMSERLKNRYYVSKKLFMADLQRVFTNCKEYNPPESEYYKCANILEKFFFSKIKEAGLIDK
PCAF bromodomain binding and inhibition of the compounds disclosed herein was assessed by monitoring the engagement of biotinylated small molecule ligand (known to bind to the PCAF bromodomain) with the target using the AlphaLisa technology (Perkin-Elmer).
In general terms: Bead proximity is the source of the signal in Alpha formats.
Consider `CN1CCCCC(Nc2cnn(CC3CC3)c(=O)c2Cl)C1` (stereo not drawn) [Example 16, 4-chloro-2-(cyclopropylmethyl)-5((1-methylazepan-3-yl)amino)pyridazin-3(2H)-one], for which the IC50 turned out to be 421 nM.
As for `C/C=C/Cn1ncc(NC2CCCCN(C)C2)c(Cl)c1=O` (stereo not drawn) [Example 17, (E)-2-(but-2-en-1-yl)-4-chloro-5-((1-methylazepan-3-yl)amino)pyridazin-3(2H)-one], the figure is 312 nM; as for `CC1CCC(Nc2cnn(C)c(=O)c2Cl)CN1C` (stereo not drawn) [Example 25, 4-chloro-5-((1,6-dimethylpiperidin-3-yl)amino)-2-methylpyridazin-3(2H)-one], 60 nM.
Consider `COCCN1CCCC(Nc2cnn(C)c(=O)c2Cl)C1` (stereo not drawn) [Example 30, 4-chloro-5-((1-(2-methoxyethyl)piperidin-3-yl)amino)-2-methylpyridazin-3(2H)-one], for which the IC50 came out at 315 nM.
As for `Cn1ncc(NC2CCCN(C3COC3)C2)c(Cl)c1=O` (stereo not drawn) [Example 31, 4-chloro-2-methyl-5-((1-(oxetan-3-yl)piperidin-3-yl)amino)pyridazin-3(2H)-one], the figure is 1220 nM; as for `CC(C)N1CCCC(Nc2cnn(C)c(=O)c2Cl)C1` (stereo not drawn) [Example 32, 4-chloro-5-((1-isopropylpiperidin-3-yl)amino)-2-methylpyridazin-3(2H)-one], 147 nM; as for `Cn1ncc(NC2CCCN(Cc3ccccn3)C2)c(Cl)c1=O` (stereo not drawn) [Example 33, 4-chloro-2-methyl-5-((1-(pyridin-2-ylmethyl)piperidin-3-yl)amino)pyridazin-3(2H)-one], 1980 nM.
For `C[C@H](c1ccccc1)N1CCCC(Nc2cnn(C)c(=O)c2Cl)C1` (stereo partly drawn) [Example 35, 4-chloro-2-methyl-5-((1-((R)-1-phenylethyl)piperidin-3-yl)amino)pyridazin-3(2H)-one], the IC50 was determined as 671 nM.
As for `C[C@@H](c1ccccc1)N1CCCC(Nc2cnn(C)c(=O)c2Cl)C1` (stereo partly drawn) [Example 36, 4-chloro-2-methyl-5-((1-((S)-1-phenylethyl)piperidin-3-yl)amino)pyridazin-3(2H)-one], the figure is 631 nM; as for `Cn1ncc(N[C@@H]2CCCCN(Cc3ccccc3)C2)c(Cl)c1=O` [Example 37, (R)-5-((1-benzylazepan-3-yl)amino)-4-chloro-2-methylpyridazin-3(2H)-one], 972 nM; as for `Cn1ncc(N[C@H]2CCCCN(Cc3ccccc3)C2)c(Cl)c1=O` [Example 38, (S)-5-((1-benzylazepan-3-yl)amino)-4-chloro-2-methylpyridazin-3(2H)-one], 3770 nM.
As for `CN1Cc2ccccc2C[C@@H](Nc2cnn(C)c(=O)c2Cl)C1` [Example 39, (R)-4-chloro-2-methyl-5-((2-methyl-2,3,4,5-tetrahydro-1H-benzo[c]azepin-4-yl)amino)pyridazin-3(2H)-one], the figure is 102 nM; as for `CN1CCCCCC(Nc2cnn(C)c(=O)c2Cl)C1` (stereo not drawn) [Example 40, 4-chloro-2-methyl-5-((1-methylazocan-3-yl)amino)pyridazin-3(2H)-one], 155 nM.
As for `Cn1ncc(NC2CCCN(Cc3c(F)cccc3F)C2)c(Cl)c1=O` (stereo not drawn) [Example 42, 4-chloro-5-((1-(2,6-difluorobenzyl)piperidin-3-yl)amino)-2-methylpyridazin-3(2H)-one], the figure is 1000 nM; as for `CN(C)c1ccc(CN2CCCC(Nc3cnn(C)c(=O)c3Cl)C2)cc1` (stereo not drawn) [Example 43, 4-chloro-5-[[1-[(4-dimethylaminophenyl)methyl]-3-piperidyl]amino]-2-methyl-pyridazin-3-one], 310 nM.
Regarding `Cn1ncc(NC2CCCN(Cc3cccc(OC(F)F)c3)C2)c(Cl)c1=O` (stereo not drawn) [Example 44, 4-chloro-5-[[1-[[3-(difluoromethoxy)phenyl]methyl]-3-piperidyl]amino]-2-methyl-pyridazin-3-one], the IC50 came out at 94.9 nM.
On to `Cn1ncc(NC2CCCN(Cc3ccc(-n4ccnc4)cc3)C2)c(Cl)c1=O` (stereo not drawn) [Example 45, 4-chloro-5-[[1-[(4-imidazol-1-ylphenyl)methyl]-3-piperidyl]amino]-2-methyl-pyridazin-3-one], for which the IC50 was 386 nM.
Consider `Cn1ncc(NC2CCCN(Cc3cc(Cl)cc(Cl)c3)C2)c(Cl)c1=O` (stereo not drawn) [Example 46, 4-chloro-5-((1-(3,5-dichlorobenzyl)piperidin-3-yl)amino)-2-methylpyridazin-3(2H)-one], for which the IC50 was determined as 278 nM.
As for `Cn1ncc(NC2CCCN(Cc3ccccc3N3CCOCC3)C2)c(Cl)c1=O` (stereo not drawn) [Example 47, 4-chloro-2-methyl-5-[[1-[(2-morpholinophenyl)methyl]-3-piperidyl]amino]pyridazin-3-one], the figure is 921 nM; as for `Cn1ncc(NC2CCCN(Cc3ncc[nH]3)C2)c(Cl)c1=O` (stereo not drawn) [Example 48, 4-chloro-5-[[1-(1H-imidazol-2-ylmethyl)-3-piperidyl]amino]-2-methyl-pyridazin-3-one], 379 nM.
For `Cn1ncc(NC2CCCN(Cc3c[nH]cn3)C2)c(Cl)c1=O` (stereo not drawn) [Example 49, 4-chloro-5-[[1-(1H-imidazol-4-ylmethyl)-3-piperidyl]amino]-2-methyl-pyridazin-3-one], the IC50 is 178 nM.
For `Cn1ncc(NC2CCCN(Cc3cncnc3)C2)c(Cl)c1=O` (stereo not drawn) [Example 50, 4-chloro-2-methyl-5-[[1-(pyrimidin-5-ylmethyl)-3-piperidyl]amino]pyridazin-3-one], the half-inhibitory concentration (IC50) came to 625 nM.
For `Cn1cc(CN2CCCC(Nc3cnn(C)c(=O)c3Cl)C2)cn1` (stereo not drawn) [Example 51, 4-chloro-2-methyl-5-[[1-[(1-methylpyrazol-4-yl)methyl]-3-piperidyl]amino]pyridazin-3-one], the IC50 was 371 nM.
As for `Cn1ccnc1CN1CCCC(Nc2cnn(C)c(=O)c2Cl)C1` (stereo not drawn) [Example 52, 4-chloro-2-methyl-5-((1-((1-methyl-1H-imidazol-2-yl)methyl)piperidin-3-yl)amino)pyridazin-3(2H)-one], the figure is 1410 nM; as for `Cc1cncc(CN2CCCC(Nc3cnn(C)c(=O)c3Cl)C2)c1` (stereo not drawn) [Example 53, 4-chloro-2-methyl-5-[[1-[(5-methyl-3-pyridyl)methyl]-3-piperidyl]amino]pyridazin-3-one], 441 nM.
As for `Cc1nc(CN2CCCC(Nc3cnn(C)c(=O)c3Cl)C2)[nH]c1C` (stereo not drawn) [Example 54, 4-chloro-5-[[1-[(4,5-dimethyl-1H-imidazol-2-yl)methyl]-3-piperidyl]amino]-2-methyl-pyridazin-3-one], the figure is 1440 nM.
As to `Cn1ncc(NC2CCCN(Cc3nc(-c4ccc(Cl)cc4)no3)C2)c(Cl)c1=O` (stereo not drawn) [Example 55, 4-chloro-5-[[1-[[3-(4-chlorophenyl)-1,2,4-oxadiazol-5-yl]methyl]-3-piperidyl]amino]-2-methyl-pyridazin-3-one], the IC50 was determined as 466 nM.
As to `Cn1ncc(NC2CCCN(Cc3ccc(F)cc3)C2)c(Cl)c1=O` (stereo not drawn) [Example 56, 4-chloro-5-[[1-[(4-fluorophenyl)methyl]-3-piperidyl]amino]-2-methyl-pyridazin-3-one], the IC50 turned out to be 139 nM.
The value for `CN1CCCC[C@H](Nc2cnn(C)c(=O)c2Cl)C1` [Example 57, (S)-4-chloro-2-methyl-5-((1-methylazepan-3-yl)amino)pyridazin-3(2H)-one] was 32.9 nM; that for `CN1CCCC[C@@H](Nc2cnn(C)c(=O)c2Cl)C1` [Example 58, (R)-4-chloro-2-methyl-5-((1-methylazepan-3-yl)amino)pyridazin-3(2H)-one] was 169 nM.

As a reminder, the IC50 is the concentration needed to halve the response being measured.
